Data: patent publication US10538516B2, “Oxadiazole derivative and pharmaceutical containing same” (National Center for Geriatrics and Gerontology, priority 2015, dated 2020)
Like-named read-outs stand apart in the source and are kept apart here.

Molecular target: T1, GAβ-dependent amyloid fibril formation (Human Aβ1-40 + GM1-containing liposome) (Homo sapiens, UniProt P05067)
T1 construct: Human Aβ1-40 (cat. #4307-v, prepared by Peptide Institute); purchased Peptide Institute 4307-v
Test: Thioflavin T (ThT) assay of GAβ-dependent amyloid fibril formation (Aβ1-40 with GM1-containing liposome)
Type: biochemical
Protocol: <3. Evaluation of the Compounds Based on the Inhibitory Activity Against Amyloid Fibril Formation in Thioflabin T (ThT) Assay>
Inhibitory activity against GAβ-dependent amyloid fibril formation of the above compounds 1 to 133 and 142 to 267 were evaluated in ThT assay.
(1) Preparation of Aβ Solution
Human Aβ1-40 (cat. #4307-v, prepared by Peptide Institute) was dissolved in a 0.02% ammonia solution (400 μM), and the mixture was treated in an ultracentrifuge (S110AT rotor, Hitachi) at 100,000 rpm for 3 hours. Approximately two-thirds of the upper layer of the supernatant was recovered and protein concentration was measured. The Aβ solution was aliquoted and stored at −80° C. until use, was melted immediately before use, and was diluted to 75 μM using phosphate buffer (PBS: cat. #10010, manufactured by Life Technologies).
(2) Preparation of GM1-Containing Liposome
Using a mixed solution of chloroform/methanol (1:1) as a solvent, a mixed solution of 100 mM each of cholesterol and sphingomyelin (both manufactured by Sigma-Aldrich) was prepared. To this mixed solution, GM 1 (cat. #1061, manufactured by Matreya Co.) was dissolved to make a solution of 50 mM concentration. This lipid mixed solution was aliquoted into glass test tubes and stored at −20° C. until use, was melted before use, was mixed with chloroform/methanol mixture (1:1) and mixed, and then the solvent was removed by applying nitrogen gas to the suspension. The dried lipid mixture was resuspended in PBS to be a GM1 concentration of 2.5 mM, and frozen and thawed 5 times with liquid nitrogen. The lipid suspension was centrifuged at 15,000 rpm for 10 minutes and the precipitate was resuspended in PBS to be a GM1 concentration of 2.5 mM. Using an ultrasonic crusher (XL-2000, MISONIX Co., Ltd.) equipped with a microchip, ultrasonic treatment was repeated on ice for 10 seconds until the suspension became transparent, and GM1-containing liposome was prepared. Immediately prior to use, PBS was added and diluted to a GM 1 concentration of 75 μM.
(3) Preparation of Compound Solution
Compounds 1 to 133 and 142 to 267 were prepared as 10 mM and 2 mM solution in DMSO, respectively. And each solution was diluted to 75 μM or 15 μM with PBS immediately prior to use.
(4) GAβ-Dependent Amyloid Fibril Formation
To a 96-well microplate, 5 μl each of the 75 μM Aβ solution prepared above (1), the compound solution prepared in (3) or 0.75% DMSO was mixed and incubated at room temperature for 10 minutes. Then, 5 μl each of 750 μM GM1-containing liposome prepared in (2) was added to each well and incubated at 37° C. for 18 hours.
ThT (manufactured by Sigma-Aldrich) was adjusted to 5 μM using 50 mM glycine-NaOH buffer (pH 8.5). Immediately before measurement, 10 μl from each well of (4) was transferred to a 96-well black plate. 50 μl of 5 μM ThT solution was added from each injector to each well using a multi-plate reader (ARVO-HTS, manufactured by Perkin Elmer), and then the optimal fluorescence of ThT bound to amyloid fiber (excitation wavelength 430 nm, fluorescence wavelength 490 nm) was measured.
The fluorescence intensity of ThT indicates the degree of amyloid fibrils formation. By calculating the ratio of the ThT fluorescence intensity between addition of the compound and without addition of the compound, the inhibition rate against amyloid fibril formation by the compound was calculated.

[1] = inhibition rate against amyloid fibril formation, final concentration of the compound 25 μM, read-out: Inhibitory activity ABC evaluation
[2] = @25 μM, read-out: ThT Inhibitory activity (% inhibition)

T1 sequence (P05067 672-711 limits assumed): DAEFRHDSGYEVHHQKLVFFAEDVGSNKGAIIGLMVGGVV

inhibition at 25 µM [1]	inhibition at 5 µM (@5 μM, read-out: ThT Inhibitory activity (% inhibition))	inhibition at 25 µM [2]	Structure (SMILES)
> 80%			O=C(N[C@H](CO)c1nc(-c2ccc(OC(F)(F)F)cc2)no1)c1ccc(Cl)cc1 [Compound 83, (R)-4-chloro-N-(2-hydroxy-1-[3-{4-(trifluoromethoxy)phenyl}-1,2,4-oxadiazol-5-yl]ethyl)benzamide]
> 80%			O=C(N[C@@H](CO)c1nc(-c2cc3ccccc3[nH]2)no1)c1ccc(F)cc1 [Compound 266, 4-fluoro-N-[(1S)-2-hydroxy-1-[3-(1H-indol-2-yl)-1,2,4-oxadiazol-5-yl]ethyl] benzamide]
40 to 80%			O=C(N[C@@H](CO)c1nc(-c2ccoc2Cl)no1)c1ccc(F)cc1 [Compound 255, N-[(1S)-1-[3-(2-chlorofuran-3-yl)-1,2,4-oxadiazol-5-yl]-2-hydroxyethyl]-4-fluorobenzamide]
40 to 80%			O=C(N[C@@H](CO)c1nc(-c2c[nH]c3ccc(Br)cc23)no1)c1ccc(F)cc1 [Compound 247, N-[(1S)-1-[3-(5-bromo-1H-indol-3-yl)-1,2,4-oxadiazol-5-yl]-2-hydroxyethyl]-4-fluorobenzamide]
40 to 80%			O=C(N[C@@H](CO)c1nc(-c2cc(Cl)c(Cl)[nH]2)no1)c1ccc(F)cc1 [Compound 249, N-[(1S)-1-[3-(4,5-dichloro-1H-pyrrol-2-yl)-1,2,4-oxadiazol-5-yl]-2-hydroxyethyl]-4-fluorobenzamide]
> 80%			O=C(NC(CO)c1nc(-c2ccc(C(F)(F)F)cc2)no1)c1ccc2[nH]ccc2c1 (centres unmarked) [Compound 183, N-(2-hydroxy-1-{3-[4-(trifluoromethyl)phenyl]-1,2,4-oxadiazol-5-yl}ethyl)-1H-indole-5-carboxamide]
40 to 80%		63%	COc1ccc2nc(-c3noc([C@H](CO)NC(=O)c4ccc(F)cc4)n3)sc2c1 [Compound 235, 4-fluoro-N-[(1S)-2-hydroxy-1-[3-(6-methoxy-1,3-benzothiazol-2-yl)-1,2,4-oxadiazol-5-yl]ethyl]benzamide]
40 to 80%			Nc1n[nH]cc1-c1noc([C@H](CO)NC(=O)c2ccc(F)cc2)n1 [Compound 257, N-[(1S)-1-[3-(3-amino-1H-pyrazol-4-yl)-1,2,4-oxadiazol-5-yl]-2-hydroxyethyl]-4-fluorobenzamide]

Second part, the compound before the results:

Structure (SMILES)	inhibition at 25 µM [1]	inhibition at 5 µM (@5 μM, read-out: ThT Inhibitory activity (% inhibition))	inhibition at 25 µM [2]
O=C1CC(c2nc(-c3ccccc3)no2)CN1c1ccc(Cl)cc1 (centres unmarked) [Compound 43, 1-(4-chlorophenyl)-4-(3-phenyl-1,2,4-oxadiazol-5-yl) pyrrolidin-2-one]	40 to 80%		
O=C1CC(c2nc(-c3ccc(O)cc3)no2)CN1c1ccc(Cl)cc1 (centres unmarked) [Compound 41, 1-(4-chlorophenyl)-4-{3-(4-hydroxyphenyl)-1,2,4-oxadiazol-5-yl}pyrrolidin-2-one]	40 to 80%		
CCCN(Cc1cccc(Cl)c1)C(=O)CCc1nc(-c2ccc(OC)cc2)no1 [Compound 9, N-(3-chlorobenzyl)-3-{3-(4-methoxyphenyl)-1,2,4-oxadiazol-5-yl}-N-propylpropanamide]	40 to 80%		
O=C1CC(CO)(c2nc(-c3ccc(O)cc3)no2)CN1c1ccc(Cl)cc1 (centres unmarked) [Compound 72, 1-(4-chloro-phenyl)-4-(hydroxy-methyl)-4-{3-(4-hydroxyphenyl)-1,2,4-oxadiazol-5-yl} pyrrolidin-2-one]	> 80%	47%	81%
O=C1CC(c2nc(-c3ccc(OC(F)(F)F)cc3)no2)CN1c1cccc(Cl)c1 (centres unmarked) [Compound 27, 1-(3-chlorophenyl)-4-{3-[4-(trifluoromethoxy)phenyl]-1,2,4-oxadiazole-5-yl}pyrrolidin-2-one]	40 to 80%		
O=C1CC(c2nc(-c3ccc(O)c(F)c3)no2)CN1c1ccc(Cl)cc1 (centres unmarked) [Compound 74, 1-(4-chloro-phenyl)-4-{3-(3-fluoro-4-hydroxyphenyl)-1,2,4-oxadiazol-5-yl}pyrrolidin-2-one]	40 to 80%		
